Measured values reported in paper PMC4015874, “Effects of Allium victorialis leaf extracts and its single compounds on aldose reductase, advanced glycation end products and TGF-β1 expression in mesangial cells” (BMC Complementary and Alternative Medicine, 2013).
“Also recorded” adds a separate entry of the source.

How the values were obtained:
[1] = target: T1, crude rat lens AR (aldose reductase) (Rattus norvegicus, UniProt P07943); assay: Rat lens AR activity; format: biochemical
T1 construct: the supernatant was used as crude rat lens AR; from tissue; host or cells: lens of 8-week-old Sprague-Dawley rats (supernatant of the homogenate)
Protocol: AR activity was measured as described previously. All animal procedures were approved by the Korea Institute of Oriental Medicine Institutional Animal Care Committee on animal care at our institute and conducted according to institutional guidelines. […] The homogenate was centrifuged at 14,000 rpm for 30 min, and the supernatant was used as crude rat lens AR. […] The reaction was initiated by the addition of NADPH at 37°C and stopped by the addition of 0.15 ml of 0.5 N HCl. Next, 0.5 ml of 6 M NaOH containing 10 mM imidazole was added, and the solution was heated at 60°C for 15 min to convert NADP to a fluorescent product.

AGEs formation = AGEs formation assay (BSA with fructose and glucose, fluorescence); format: biochemical; conditions: BSA with 0.2 M fructose and glucose, 37°C, 7 days
Protocol: AGEs formation assay was performed as previously described. Bovine serum albumin (BSA, 10 mg/ml, Sigma-Aldrich) in 50mM phosphate buffer (pH 7.4) with containing 0.02% sodium azide to prevent bacterial growth was added to 0.2 M fructose and glucose. The reaction mixture was then mixed with compounds or aminoguanidine (AG, Sigma-Aldrich). After incubating at 37°C for 7 days, the fluorescent reaction products were assayed on a spectrofluorometric detector (BIO-TEK, Synergy HT, Ex: 350 nm/Em: 450 nm). AGEs assay was performed in quadruplicate.

human RAGE (hRAGE) = target: T2, human RAGE (hRAGE) (Homo sapiens, UniProt Q15109); assay: Live cell-based AGE-BSA/RAGE binding in hRAGE-overexpressing cells; conditions: hRAGE-overexpressing MMCs, Alexa Fluor 488-labeled AGE-BSA, 6 h
T2 construct: expressed in transfected cells; host or cells: mouse kidney mesangial cells (MMCs) overexpressing hRAGE
T2 sequence (Q15109 23-404): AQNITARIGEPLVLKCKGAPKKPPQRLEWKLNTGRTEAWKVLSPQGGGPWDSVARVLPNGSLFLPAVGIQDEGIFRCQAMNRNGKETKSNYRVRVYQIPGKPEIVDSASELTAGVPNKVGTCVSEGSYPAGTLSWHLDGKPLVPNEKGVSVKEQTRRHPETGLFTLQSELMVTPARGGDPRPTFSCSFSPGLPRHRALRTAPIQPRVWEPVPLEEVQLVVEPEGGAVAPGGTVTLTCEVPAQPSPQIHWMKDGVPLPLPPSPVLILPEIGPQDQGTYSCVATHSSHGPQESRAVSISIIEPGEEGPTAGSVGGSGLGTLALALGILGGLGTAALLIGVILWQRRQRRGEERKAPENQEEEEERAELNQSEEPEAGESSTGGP
Protocol: AGE-BSA/RAGE binding in the cells was determined as described previously. Briefly, Alexa 488 labeling of AGE-BSA was performed using the Alexa Fluor® 488 protein labeling kit (Molecular Probes, Eugene, OR). For the binding assay, human RAGE-overexpressing cells (1×10^4) were seeded onto a 96-well assay plate with a clear bottom lid and black plate (Corning, NY) and incubated with serum-free media for 24 h. Before binding, 3% BSA was added for 30 min to block non-specific binding. Cells were treated with 5 μg of Alexa Fluor 488-labeled AGE-BSA in a total volume of 100 μl serum-free medium and incubated in the dark for 6 h in a 5% CO2 humidified atmosphere at 37°C. Compounds were added after the addition of AGE-BSA-Alexa Fluor 488 to hRAGE-overexpressing cells. The non-specific binding of AGE-BSA-Alexa Fluor 488 to cell surface proteins other than hRAGE was compared by incubating cells with untreated cells (blank). After binding, 100 μl Opti-MEM were added to the washed plates, and the plates were then analyzed using a microtiter plate reader (Bio-Tek, Winooski, VT) with excitation and emission wavelengths of 485 and 528 nm, respectively.

[2] = tested on: TGF-β1 mRNA expression in mouse kidney mesangial cells (MMCs); assay: High glucose-induced TGF-β1 mRNA expression in MMCs (RT-PCR); format: cell-based; conditions: high glucose 48 h, 10 μM compound
Protocol: Mouse kidney mesangial cells (SV40 MES13, MMC) were obtained from the American Type Culture Collection (#CRL-1927, Rockville, MD) and cultured in Dulbecco's modified Eagle's medium:F-12 (3:1) supplemented with 14 mM HEPES, penicillin 100 U/ml, streptomycin 100 μg/ml, and 5% fetal bovine serum. Cells were routinely grown to confluence in a humidified 37°C, 5% CO2 incubator.
Total cellular RNA was extracted with TRIzol (Invitrogen, Carlsbad, CA), quantified by measuring the absorbance at 260 nm, and stored at -80°C until analysis. The expression of TGF-β1 and GAPDH mRNAs was detected by RT-PCR analysis. The extracted RNA (1 μg) was subjected to a reverse transcriptase reaction with the Maxime RT premix (Intron, Daejeon, Korea) at 42°C for 60 min and 72°C for 10 min. Subsequently, semi-quantitative PCR was performed with Accupower® PCR premix (Intron, Daejeon, Korea). The primer sequences were as follows: mouse TGF-β1 (sense) 5’- TGAACCAAGGAGACGGAATACAGG -3’, (anti-sense) 5'- GCCATGAGGAGCAGGAAGGG -3’ and mouse GAPDH (sense) 5’- ACGGCAAATTCAACGGCACAG -3’, (anti-sense) 5’- AGACTCCACGACATACTCAGCAC -3’. Aliquots of PCR products were electrophoresed on 1.2% agarose gels and visualized after ethidium bromide staining.

[3] = tested on: secreted TGF-β1 in mouse kidney mesangial cells (MMCs); assay: High glucose-induced TGF-β1 secretion in MMCs (ELISA); format: cell-based; conditions: high glucose 48 h, 10 μM compound, ELISA of medium
Protocol: Mouse kidney mesangial cells (SV40 MES13, MMC) were obtained from the American Type Culture Collection (#CRL-1927, Rockville, MD) and cultured in Dulbecco's modified Eagle's medium:F-12 (3:1) supplemented with 14 mM HEPES, penicillin 100 U/ml, streptomycin 100 μg/ml, and 5% fetal bovine serum. Cells were routinely grown to confluence in a humidified 37°C, 5% CO2 incubator. The levels of TGF-β1 in the medium were determined as described previously. […] This medium was then harvested and TGF-β1 was activated by treatment with 1 N HCl (0.1 ml/0.5 ml of conditioned media) for 10 min at room temperature, then 0.1 ml 1.2 N NaOH/0.5 M HEPES was added. Quantikine mouse TGF-β1 ELISA (R&D systems, Minneapolis, MN) was performed according to the manufacturer’s protocol, and the TGF-β1 levels were normalized to those of total protein.

Row | SMILES | AR inhibitory potency compared with positive control TMG [1] | IC50 ([1]; DL-glyceraldehyde substrate) | IC50 (AGEs formation) | further results
1 | O=c1c(O)c(-c2ccc(O)cc2)oc2cc(O)cc(O)c12 [Compound 5, kaempferol] | significantly more potent | 1.1 ± 0.63 µM | 36 ± 1.4 µM | 
2 | O=c1c(O[C@@H]2O[C@H](CO)[C@@H](O)[C@H](O)[C@H]2O)c(-c2ccc(O)cc2)oc2cc(O[C@@H]3O[C@H](CO)[C@@H](O)[C@H](O)[C@H]3O)cc(O)c12 [Compound 2, Kaempferol 3,7-O-β-D-diglucopyranoside] |  | > 50 µM | 56.4 ± 1.39 µM | 
3 | O=C(O)CC1(CC(=O)O)CCCC1 [Tetramethyleneglutaric acid, 3,3-tetramethyleneglutaric acid, reference compound] |  | 5.07 ± 0.06 µM |  | AR IC50 ([1]; DL-glyceraldehyde substrate): 0.94 ± 0.01 µg/mL
4 | N=C(N)NN [Aminoguanidine, aminoguanidine, reference compound] |  |  | 1030 ± 70 µM | AGEs IC50 (AGEs formation): 76.47 ± 4.81 µg/mL
5 | C[C@@H]1O[C@@H](Oc2c(-c3ccc(O)c(O)c3)oc3cc(O)cc(O)c3c2=O)[C@H](O)[C@H](O)[C@H]1O [Compound 4, quercitrin] | significantly more potent | 0.17 ± 0.1 µM | 4.2 ± 0.04 µM | Inhibition of AGE-RAGE binding (human RAGE (hRAGE)): significantly inhibited; Inhibition of AGE-RAGE binding (human RAGE (hRAGE); listed as quercitrin): disrupted AGE-RAGE binding in a concentration-dependent manner
6 | O=c1c(O[C@@H]2O[C@H](CO)[C@@H](O)[C@H](O)[C@H]2O)c(-c2ccc(O[C@@H]3O[C@H](CO)[C@@H](O)[C@H](O)[C@H]3O)cc2)oc2cc(O[C@@H]3O[C@H](CO)[C@@H](O)[C@H](O)[C@H]3O)cc(O)c12 [Compound 1, Kaempferol 3,7,4’-O-β-D-triglucopyranoside] |  | > 50 µM | > 100 µM | 
7 | O=c1c(O[C@@H]2O[C@H](CO)[C@@H](O)[C@H](O)[C@H]2O)c(-c2ccc(O[C@@H]3O[C@H](CO)[C@@H](O)[C@H](O)[C@H]3O)cc2)oc2cc(O)cc(O)c12 [Compound 3, kaempferol 3,4’-O-β-D-diglucopyranoside] |  | 9.77 ± 0.33 µM | 59.7 ± 1.22 µM | 
8 | O=c1c(O)c(-c2ccc(O)c(O)c2)oc2cc(O)cc(O)c12 [Compound 6, quercetin] | significantly more potent |  | 27.1 ± 0.11 µM | 
9 | O=C(O)C=Cc1ccc(O)cc1 [Compound 7, 4-hydroxycinnamic acid] |  | > 50 µM | 9.92 ± 0.11 µM | 
10 | COc1cc(/C=C/C(=O)O)ccc1O [Compound 8, ferulic acid] |  | > 50 µM | 7.5 ± 0.2 µM | Inhibition of high glucose-induced TGF-β1 mRNA expression [2]: greatest inhibitory effect; Inhibition of high glucose-induced TGF-β1 mRNA expression ([2]; listed as ferulic acid): significantly reduced; also recorded: reduces; Inhibition of high glucose-induced TGF-β1 secretion [3]: significantly reduced; also recorded: reduces
